Experimental data as given in PubChem BioAssay AID328 (DTP/NCI, 2004).
Where “and” joins values, the source holds several entries; their conditions need not be identical. Equal entries are not always repeated. Toxic doses and inconclusive results are not listed. How the source made its calls: active means survival T/C of 150% or more; inactive means T/C below 125% in these data.

Tested on: BDF1 mice, P388 leukemia ip, median survival T/C
Assay: NCI In Vivo Anticancer Drug Screen. Data for tumor model P388 Leukemia (intraperitoneal) in B6D2F1 (BDF1) mice
Settings: endpoint: median survival time, higher = longer survival
In short: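 Read-out is survival of treated animals expressed relative to the vehicle group, as a T/C ratio.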

[1] = dose: 100.0 mg/kg/injection, schedule: Q01DX009 (ip), vehicle: Klucel (hydroxypropylcellulose) (HPC)
[2] = dose: 100.0 mg/kg/injection, schedule: Q04DX003 (ip), vehicle: Klucel (hydroxypropylcellulose) (HPC)
[3] = dose: 200.0 mg/kg/injection, schedule: Q01DX009 (ip), vehicle: Klucel (hydroxypropylcellulose) (HPC)
[4] = dose: 200.0 mg/kg/injection, schedule: Q04DX003 (ip), vehicle: Klucel (hydroxypropylcellulose) (HPC)
[5] = dose: 400.0 mg/kg/injection, schedule: Q01DX009 (ip), vehicle: Klucel (hydroxypropylcellulose) (HPC)
[6] = dose: 400.0 mg/kg/injection, schedule: Q04DX003 (ip), vehicle: Klucel (hydroxypropylcellulose) (HPC)
[7] = dose: 100.0 mg/kg/injection, schedule: Q01DX009 (ip), vehicle: saline with Tween-80
[8] = dose: 200.0 mg/kg/injection, schedule: Q01DX009 (ip), vehicle: saline with Tween-80
[9] = dose: 400.0 mg/kg/injection, schedule: Q01DX009 (ip), vehicle: saline with Tween-80

Measured: T/C

Nc1ccc(C(=O)Nc2ccc(Nc3ccncc3)cc2)cc1
inactive: [1] 109 % of control | [2] 104 % of control | [3] 118 % of control | [4] 104 % of control | [5] 118 % of control | [6] 100 % of control

CCCCCCCCCCCCCCCC(=O)OCCCCCCCCCCCCC
inactive: dose: 25.0 mg/kg/injection, schedule: Q04DX003 (ip), vehicle: saline with Tween-80 100 % of control | dose: 50.0 mg/kg/injection, schedule: Q04DX003 (ip), vehicle: saline with Tween-80 100 % of control | dose: 100.0 mg/kg/injection, schedule: Q04DX003 (ip), vehicle: saline with Tween-80 105 % of control

CNC1C(OC2C(OC3C(O)C(O)C(N=C(N)N)C(O)C3N=C(N)N)OC(C)C2(O)C=O)OC(CO)C(O)C1O (configuration not stated)
inactive: dose: 100.0 mg/kg/injection, schedule: Q01DX009 (ip), vehicle: water 103 % of control | dose: 200.0 mg/kg/injection, schedule: Q01DX009 (ip), vehicle: water 112 % of control | dose: 400.0 mg/kg/injection, schedule: Q01DX009 (ip), vehicle: water 103 % of control

CC(C)(C)c1ccc(S(=O)[O][Sn]([CH3])([CH3])[O]S(=O)c2ccc(C(C)(C)C)cc2)cc1 (configuration not stated)
inactive: dose: 12.5 mg/kg/injection, schedule: Q01DX001 (ip), vehicle: Klucel (hydroxypropylcellulose) (HPC) 110 % of control | dose: 25.0 mg/kg/injection, schedule: Q01DX001 (ip), vehicle: Klucel (hydroxypropylcellulose) (HPC) 113 % of control | dose: 50.0 mg/kg/injection, schedule: Q01DX001 (ip), vehicle: Klucel (hydroxypropylcellulose) (HPC) 116 % of control

Cc1ccc(C)c(NC(=O)c2ccccc2N)c1
inactive: [1] 100 % of control | [2] 104 % of control | [3] 100 % of control | [4] 104 % of control | [5] 90 % of control | [6] 104 % of control

O=C(O)c1ccc(C2CC2)cc1
inactive: [7] 95 % of control | [8] 90 % of control | [9] 90 % of control

CCOC(=O)C1=C(C)NC(C)=C(C(=O)OCC)C1
inactive: dose: 100.0 mg/kg/injection, schedule: Q01DX001 (ip), vehicle: saline with Tween-80 90 % of control | dose: 200.0 mg/kg/injection, schedule: Q01DX001 (ip), vehicle: saline with Tween-80 95 % of control | dose: 400.0 mg/kg/injection, schedule: Q01DX001 (ip), vehicle: saline with Tween-80 100 % of control

CCOC(=O)/C(C#N)=C1/CCCN1
inactive: [7] 104 % of control | [8] 100 % of control | [9] 100 % of control

CC[C@](C)(O)C(=O)O[C@H]1C(=O)O[C@@H]2C[C@H]3C(C)=CC(=O)[C@@H](O)[C@]3(C)[C@H]3[C@@]4(O)OC[C@]32[C@@H]1[C@@H](C)[C@H]4O
active: dose: 0.25 mg/kg/injection, schedule: Q01DX010 (ip), vehicle: steriod suspending solution 177 % of control | dose: 0.5 mg/kg/injection, schedule: Q01DX010 (ip), vehicle: steriod suspending solution 231 % of control | dose: 0.51 mg/kg/injection, schedule: Q01DX009 (ip), vehicle: saline with Tween-80 161 % of control | dose: 0.6 mg/kg/injection, schedule: Q01DX010 (ip), vehicle: saline 150 % of control | dose: 0.64 mg/kg/injection, schedule: Q01DX009 (ip), vehicle: saline with Tween-80 171 % of control
inactive: dose: 0.06 mg/kg/injection, schedule: Q01DX009 (ip), vehicle: saline with Tween-80 100 % of control | dose: 0.07 mg/kg/injection, schedule: Q01DX010 (ip), vehicle: saline 105 % of control | dose: 0.12 mg/kg/injection, schedule: Q01DX009 (ip), vehicle: saline with Tween-80 100 % of control | dose: 0.12 mg/kg/injection, schedule: Q01DX009 (ip), vehicle: saline 100 % of control | dose: 0.15 mg/kg/injection, schedule: Q01DX010 (ip), vehicle: saline 95 % of control | dose: 0.2 mg/kg/injection, schedule: Q01DX010 (ip), vehicle: saline 100 % of control | dose: 0.25 mg/kg/injection, schedule: Q01DX009 (ip), vehicle: saline 108 % of control | dose: 0.3 mg/kg/injection, schedule: Q01DX010 (ip), vehicle: saline 109 % of control and 110 % of control | dose: 0.44 mg/kg/injection, schedule: Q01DX010 (ip), vehicle: saline 104 % of control | dose: 0.5 mg/kg/injection, schedule: Q01DX009 (ip), vehicle: saline 104 % of control | dose: 0.66 mg/kg/injection, schedule: Q01DX010 (ip), vehicle: saline 122 % of control | dose: 1.0 mg/kg/injection, schedule: Q01DX009 (ip), vehicle: saline + alcohol 87 % of control
